Series [1] can be described thus: Plasma profile / metabolite quantization in mice (LC-MS MRM). The format is in vivo.
The target of another series is T1, FXR (Homo sapiens, UniProt Q96RI1).
T1 construct: expressed in transfected cells; host or cells: HepG2 (the text says EC50 dose-response curves were run in HEK-293T)
T1 sequence (Q96RI1 1-486): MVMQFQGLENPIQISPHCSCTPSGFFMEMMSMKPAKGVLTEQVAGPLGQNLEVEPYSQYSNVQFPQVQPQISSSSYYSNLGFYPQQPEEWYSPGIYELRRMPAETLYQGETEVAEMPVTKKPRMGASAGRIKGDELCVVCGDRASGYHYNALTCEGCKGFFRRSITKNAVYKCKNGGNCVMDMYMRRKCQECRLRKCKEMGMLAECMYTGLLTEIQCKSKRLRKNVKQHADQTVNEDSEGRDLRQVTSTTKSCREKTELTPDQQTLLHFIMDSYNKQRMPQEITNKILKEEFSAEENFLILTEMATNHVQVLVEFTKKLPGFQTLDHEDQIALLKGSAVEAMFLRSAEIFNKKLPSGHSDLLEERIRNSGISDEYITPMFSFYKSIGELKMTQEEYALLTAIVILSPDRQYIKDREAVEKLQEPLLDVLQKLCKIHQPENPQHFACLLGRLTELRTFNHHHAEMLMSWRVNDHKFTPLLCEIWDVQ
T1 sequence (P19793 1-462 partner): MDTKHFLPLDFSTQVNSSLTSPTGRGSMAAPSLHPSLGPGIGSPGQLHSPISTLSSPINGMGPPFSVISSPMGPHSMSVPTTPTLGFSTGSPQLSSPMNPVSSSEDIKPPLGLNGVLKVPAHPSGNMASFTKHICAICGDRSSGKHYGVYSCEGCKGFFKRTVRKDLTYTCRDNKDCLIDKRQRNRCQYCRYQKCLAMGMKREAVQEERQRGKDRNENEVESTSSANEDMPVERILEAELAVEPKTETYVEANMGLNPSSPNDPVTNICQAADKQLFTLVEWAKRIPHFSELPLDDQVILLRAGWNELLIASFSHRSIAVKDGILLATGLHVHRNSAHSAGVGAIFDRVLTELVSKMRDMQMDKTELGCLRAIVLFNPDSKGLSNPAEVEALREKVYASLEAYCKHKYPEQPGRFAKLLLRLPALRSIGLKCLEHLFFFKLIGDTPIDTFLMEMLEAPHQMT
Nature of the series: FXR transactivation (luciferase reporter) assay in HepG2 cells. In kind it is cell-based. The note with it: HepG2 cells. The method, then:
HepG2 and HEK-293T cells were cultured at 37 °C in minimal essential medium (MEM) and Dulbecco’s Modified Eagle Medium (DMEM) respectively, supplemented with 10% fetal bovine serum, 1% L-glutamine, 100 U/mL penicillin, and 100 μg/mL streptomycin. To investigate FXR-mediated transactivation, the HepG2 cells were transfected with 200 ng of the reporter vector p (hsp27)TK-Luc containing the FXR response element IR1 cloned from the promoter of heat shock protein 27 (hsp27), plus 100 ng pSG5-FXR, 100 ng pSG5-RXR, and 100 ng pGL4.70 Renilla. To evaluate GPBAR1 mediated transactivation, HEK-293T cells were transfected with 200 ng of human pGL4.29 (Promega), a reporter vector containing a cAMP response element (CRE) that drives the transcription of the luciferase reporter gene luc2P, with 100 ng of pCMVSPORT6-human GPBAR1, and with 100 ng of pGL4.70. At 24 h post-transfection, cells were stimulated 18 h with 10 μM TLCA (taurolithocholic acid a GPBAR1 agonist) or CDCA (FXR agonist) and compounds. To calculate the EC50 on FXR and GPBAR1, dose-response curves were performed in HEK-293T cells transfected as described above and then treated with increasing concentrations of compounds (from 0.1 to 50 µM). After treatments, cells were lysed in 100 μL of lysis buffer (25 mM Tris-phosphate, pH 7.8; 2 mM DTT; 10% glycerol; 1% Triton X-100), and 10 μL of cellular lysate was assayed for luciferase activity using the Firfly &Renilla Luciferase assay kit (Biotium). Luminescence was measured using Glomax 20/20 luminometer (Promega). Luciferase activities were assayed and normalized with Renilla activities.

Structures are written as SMILES. Entries after “also recorded” stand apart in the source; their conditions may differ.

As for `CC[C@@H]1C2C[C@H](O)CC[C@]2(C)C2CC[C@@]3(C)C(CC[C@@H]3[C@H](C)CCOC(=O)C(C)(C)Oc3ccc(Cl)cc3)C2[C@@H]1O` (some centres unmarked) [Compound 1], in series [1] (mice treated with compound 1, 30 mg/kg), the “Plasma level of oxidized metabolite BAR505” value is “highly abundant species”. For the same molecule, the “Plasma clofibric acid released, compared with that from clofibrate” value in series [1] (mice, 30 mg/kg) is “superimposable”. In addition, the “Unmodified compound in plasma” value in series [1] (mice, 30 mg/kg, 0-8 h) is “not detected; also recorded: not found”. In addition, at FXR, the response was half-maximal at 2.8 ± 0.01 µM (EC50).
For the molecule `CC[C@H]1[C@@H](O)[C@@H]2[C@H](CC[C@]3(C)[C@@H]([C@H](C)CCO)CC[C@@H]23)[C@@]2(C)CC[C@@H](O)C[C@@H]12` [BAR502, 6α-ethyl-3α,7α-dihydroxy-24-nor-5β-cholan-23-ol], the EC50 on FXR was 2 ± 0.2 µM.

A word on the EC50: it is the concentration giving half of the maximal effect.

Values taken from publication PMC11289669, “BAR502/fibrate conjugates: synthesis, biological evaluation and metabolic profile” (Frontiers in Chemistry, 2024).
